Tests used:
straight run broilers = experiment: Growth promoting Studies 3-1 and 3-2, pelleted starter feed, batteries; format: in vivo, chicken; details: BT1583 12 ppm, BMD 50 ppm, COB 90 ppm, alone or combined
Source text: Eight (8) study repetitions per treatment were used, again with 4 birds per pen.

[1] = tested on: Module 2 A-domain protein; experiment: ATP-PPi exchange assay, Module 2 A-domain; format: biochemical, Brevibacillus texasporus; details: 0.5 mM amino acid, 37° C., 15 min
Procedure: (§1) Cloning, overexpression, and purification of His10-tagged BT A-domain proteins. DNA fragments encoding the A-domains of the BT NRPS Modules 8, 5, 7, 4 and 2 (Bt8A, Bt5A, Bt7A, Bt4A and Bt2A) were PCR-amplified and the PCR products were inserted into the His10-tag recombinant protein expression vector pET16b (Novagen). The A-domain borders were determined as defined by (Konz, et al., 1999). The expression constructs were transformed into the E.coli BL21 -AI strain (Invitrogen). Transformants were grown in L-broth at 37° C. to an A600 of 0.6 and then induced with 1 mM IPTG (isopropyl-β-D-thiogalactopyranoside) plus 0.2% L-arabinose. The cells were allowed to grow for two additional hours at 30° C. before being harvested. Purification of the His10-tag recombinant proteins was achieved using the TALON metal affinity resins (BD Biosciences) under conditions recommended in the manual with modifications. Briefly, the E. coli cells were broken by sonication. Cell lysates were cleared by centrifugation at 25,000× g for one hour. His-tagged recombinant proteins were then incubated with the TALON resin, washed, and eluted with 500 mM imidazole. Eluted proteins were dialyzed against a buffer (50 mM HEPES, pH 8.0, 100 mM sodium chloride, 10 mM magnesium chloride, and 1 mM EDTA) and then analyzed with SDS PAGE plus Coomassie Blue staining. […] Concentrations of the purified proteins were determined by using the calculated molar extinction coefficient for the A280.
ATP-PPi exchange assay. ATP-PPi exchange assays were performed to determine the substrate specificity of an A-domain. ATP-PPi exchanges were assayed as previously described (Stachelhaus, et al., 1998) with minor modifications. The assay mixture contained 50 mM HEPES (pH 8.0), 100 mM NaCl, 10 mM MgCl2, 2 mM ATP, 0.5 mM amino acid, 0.05 mM PPi, 0.15 μCi tetrasodium [^32P]pyrophosphate. Exchange was initiated by addition of purified recombinant A-domain proteins to a total volume of 0.1 ml. The protein concentrations were 0.2 μM for Module 4 and Module 5 A-domains while 2 μM for Module 7 and Module 8 A-domains. After incubation at 37° C. for 15 min, the reaction was stopped by addition of 0.5 ml of Termination Mix (100 mM tetrasodium pyrophosphate, 3.5% HClO4, and 1.6% [w/v] activated charcoal). The charcoal was pelleted by centrifugation, washed first with 40 mM pyrophosphate plus 1.4% perchloric acid and then with water, and was re-suspended in 0.5 ml of water. The charcoal/water suspension was added to a scintillation vial containing 5.0 ml of scintillation fluid, and the bound radioactivity was determined by liquid scintillation counting. The apparent Km values were determined with substrate concentrations ranging from 0.1 to 10 mM.
(§2) Since a purified recombinant A-domain of an NRPS module can selectively and efficiently activate the cognate amino acid substrate of the NRPS module in an ATP-PPi exchange assay (Konz, et al., 1999; Mootz & Marahiel, 1997), ATP-PPi exchange assays have been used to experimentally establish NRPS module specificities and novel NRPS codons. Recombinant A-domains of Modules 8, 5, 7 ,4 and 2 of the BT NRPS were produced and purified as described in Methods and Materials. Almost completely soluble recombinant A-domain proteins were obtained. A-domain specificities were determined in ATP-PPi exchange and aa Km assays (see Methods and Materials), and the results are shown in FIG. 5. […]

[2] = biological target: Module 5 A-domain protein (Brevibacillus texasporus, UniProt Q2VQ15); experiment: ATP-PPi exchange assay, Module 5 A-domain; format: biochemical; details: 0.5 mM amino acid, 0.2 μM protein, 37° C., 15 min
Procedure: as §1, with “His-tagged recombinant proteins were then incubated with the TALON resin, washed, and eluted with 500 mM imidazole.” left out
(§3) ATP-PPi exchange assay. […] The charcoal/water suspension was added to a scintillation vial containing 5.0 ml of scintillation fluid, and the bound radioactivity was determined by liquid scintillation counting. […]
as §2, with “Recombinant A-domains of Modules 8, 5, 7 ,4 and 2 of the BT NRPS were produced and purified as described in Methods and Materials. Almost completely soluble recombinant A-domain proteins were obtained.” left out

[3] = biological target: Module 8 A-domain protein (Brevibacillus texasporus, UniProt Q2VQ14); experiment: ATP-PPi exchange assay, Module 8 A-domain; format: biochemical; details: 0.5 mM amino acid, 2 μM protein, 37° C., 15 min
Procedure: as §1, with “His-tagged recombinant proteins were then incubated with the TALON resin, washed, and eluted with 500 mM imidazole.” left out
as §3
as §2, with “Recombinant A-domains of Modules 8, 5, 7 ,4 and 2 of the BT NRPS were produced and purified as described in Methods and Materials. Almost completely soluble recombinant A-domain proteins were obtained.” left out

[4] = biological target: Module 4 A-domain protein (Brevibacillus texasporus, UniProt Q2VQ15); experiment: ATP-PPi exchange assay, Module 4 A-domain; format: biochemical; details: 0.5 mM amino acid, 0.2 μM protein, 37° C., 15 min
Procedure: as §1, with “His-tagged recombinant proteins were then incubated with the TALON resin, washed, and eluted with 500 mM imidazole.” left out
as §3
as §2, with “Recombinant A-domains of Modules 8, 5, 7 ,4 and 2 of the BT NRPS were produced and purified as described in Methods and Materials. Almost completely soluble recombinant A-domain proteins were obtained.” left out

[5] = substrate: CC[C@H](C)[C@H](N)C(=O)O; experiment: ATP-PPi exchange assay, Module 4 A-domain; format: biochemical, Brevibacillus texasporus; details: other: substrate 0.1 to 10 mM; pH 8.0
Procedure: as §1, with “Purification of the His10-tag recombinant proteins was achieved using the TALON metal affinity resins (BD Biosciences) under conditions recommended in the manual with modifications. Briefly, the E. coli cells were broken by sonication. Cell lysates were cleared by centrifugation at 25,000× g for one hour. His-tagged recombinant proteins were then incubated with the TALON resin, washed, and eluted with 500 mM imidazole.” left out
as §3

[6] = substrate: CC(C)[C@H](N)C(=O)O; experiment: ATP-PPi exchange assay, Module 8 A-domain; format: biochemical, Brevibacillus texasporus; details: other: substrate 0.1 to 10 mM; pH 8.0
Procedure: as §1, with “Purification of the His10-tag recombinant proteins was achieved using the TALON metal affinity resins (BD Biosciences) under conditions recommended in the manual with modifications. Briefly, the E. coli cells were broken by sonication. Cell lysates were cleared by centrifugation at 25,000× g for one hour. His-tagged recombinant proteins were then incubated with the TALON resin, washed, and eluted with 500 mM imidazole.” left out
as §3

[7] = substrate: CC(C)[C@H](N)C(=O)O; experiment: ATP-PPi exchange assay, Module 5 A-domain; format: biochemical, Brevibacillus texasporus; details: other: substrate 0.1 to 10 mM; pH 8.0
Procedure: as §1, with “Purification of the His10-tag recombinant proteins was achieved using the TALON metal affinity resins (BD Biosciences) under conditions recommended in the manual with modifications. Briefly, the E. coli cells were broken by sonication. Cell lysates were cleared by centrifugation at 25,000× g for one hour. His-tagged recombinant proteins were then incubated with the TALON resin, washed, and eluted with 500 mM imidazole.” left out
as §3

[8] = substrate: CC[C@H](C)[C@H](N)C(=O)O; experiment: ATP-PPi exchange assay, Module 5 A-domain; format: biochemical, Brevibacillus texasporus; details: other: substrate 0.1 to 10 mM; pH 8.0
Procedure: as §1, with “Purification of the His10-tag recombinant proteins was achieved using the TALON metal affinity resins (BD Biosciences) under conditions recommended in the manual with modifications. Briefly, the E. coli cells were broken by sonication. Cell lysates were cleared by centrifugation at 25,000× g for one hour. His-tagged recombinant proteins were then incubated with the TALON resin, washed, and eluted with 500 mM imidazole.” left out
as §3

## CC[C@@]1([C@@H]2O[C@@H]([C@H]3O[C@@](O)(CO)[C@H](C)C[C@@H]3C)C[C@@H]2C)CC[C@H]([C@]2(C)CC[C@]3(C[C@H](O)[C@@H](C)[C@@H]([C@@H](C)[C@@H](OC)[C@H](C)C(=O)O)O3)O2)O1 [Monensin, reference compound]
Straight run broilers; Table 18
  20-day cumulative weight gain, Mean: 792.8438
Straight run broilers; Table 20
  21-day cumulative weight gain, estimated marginal Mean: 792.844
Straight run broilers; Table 21
  21-day cumulative weight gain, Duncan homogeneous subsets: 792.8438
Straight run broilers; Table 25
  20-day cumulative feed conversion rate, Duncan homogeneous subsets: 1.3712

## CSCC[C@H](N)C(=O)O [L-Met]
[1]
  relative substrate activation (highest activity defined as 100%): 100%

## CC(C)[C@H](N)C(=O)O [L-Val]
[2]
  relative substrate activation (highest activity defined as 100%): 100%
[3]
  relative substrate activation (highest activity defined as 100%): 100%
[4]
  relative substrate activation (highest activity defined as 100%): 9%
[1]
  relative substrate activation (highest activity defined as 100%): 67%

B1: Module 4 A-domain protein (Brevibacillus texasporus) (protein)
chain: QLFEEQVDKNPNQIALVFKEEKLTYGEVNAKANQLAYVLRKQGVQPNDVIGIITERSPEMIIGILAIFKAGGAYMPIDPSYPAERIQYMLQDNQTKLLLVQKQEMIPANYQGEVLFLTQESWMHEETSNPAHITQAQALAYVMYTSGSTGEPKGILTTHQNIMKTVIHNGYVEITPGDCLSQLSNYAFDGSTFEIYGALLHGATLLLVTKEAVLNMNELARLIKKEQVTVSFMTTALFNTLVDLDITCFQSIRKVLFGGELASVKHVLKALDYLGEHRVINVYGPTETTVYATYYSVDHSMLTRASVPIGRPINNTKAYIVNTDGQPQPIGVVGELCIGGEGVACGYLNRPELTKKHFVDNPFVLGERMYCTGDLARFLPDGNIEYIGRMDEQVKIRGHRIELGEIEKVLLQHPAISETVLLAKRDEQGHSYLCAYIVGQVFWTVTELRQHLMESLPEYMVPSYFIEIEKLPLTANGKVDKRALPEPDRKMGSAYV
[5]
  Km: 500 µM

B2: Module 8 A-domain protein (Brevibacillus texasporus) (protein)
chain: ALVFGEAQLTYRELNEKANQMARGLRKQGVLPDQVIGLLTDRSLEMIIAILAIFKAGGAYMPIDPSYPSERIQYMLADSRTHLLLVQKAEMIPANYQGEVLLLTEDSWMDENTDNLDLVNQAQDLAYVMYTSGSTGKPKGNLTTHQNIVKTIMNNGYMEITPNDRLLQLSNYAFDGSTFDIYSALLNGASLILVPTHVLMNPTDLASVIQDQHITVSFMTTSLFNTLVELDVTSLKHMRKVVFGGEKASIKHVEKALDYLGAGRLVNGYGPTETTVFATTYTVDHTIKETGIMPIGRPLNNTKVFILGADNQLQPIGALGELCVSGEGLARGYLNLPELTADRFVENPFMRGERMYRTGDLARWLPDGSIEYVGRIDEQVKIRGHRIELGEIEARLLEHPAISETVLLAKQDEQGHSFLCAYLVTNGAWSVAELRKHIKETLPDSMVPSYFIEIDKMPLTSNGKADKRALPEPDVQQVSSY
[6]
  Km: 2750 µM

B3: Module 5 A-domain protein (Brevibacillus texasporus) (protein)
chain: DKTIHQQFEQKVEENPDQIALLFKDKEITYGQLNAKANQFARVLRKHGVQPDQVVGLITDRSIEMMIGILAILKAGGAYLPIDPSYPLERITYMLEDSQAQLLIVQEAAMIPEGYQGKVLLLAEECWMQEEASNLELINDAQDLAYVMYTSGSTGKPKGNLTTHQNILRTIINNGFIEIVPADRLLQLSNYAFDGSTFDIYSALLNGATLVLVPKEVMLNPMELARIVREQDITVSFMTTSLFHTLVELDVTSMKSIRKVVFGGEKASYKHVEKALDYLGEGRLVNGYGPTETTVFATTYTVDSSIKETGIVPIGRPLNNTSVYILNENNQPQPIGVPGELCVGGAGIARGYLNRPELTAERFVDNPFLVGDRMYRTGDMARFLPDGNIEYIGRMDEQVKIRGHRIELGEIEKSLLEYPAISEAVLVAKRDEQGHSYLCAYVVSTDQWTVAKVRQHILEALPEYMVPSYFVELEKLPLTSNGKVDKRALPEPDRVITNEYV
[7]
  Km: 1110 µM
[8]
  Km: 2780 µM

From US7498404B2, “Compositions, methods and uses for a novel family of peptides” (priority 2004, dated 2009)
